Where “and” joins values, the source holds several entries; their conditions need not be identical. Equal entries are not always repeated. A value given as a limit tells only on which side of the number the result lay.

For the test, the target named is T1, GRK2 (Homo sapiens, UniProt P25098).
T1 sequence (P25098 1-689): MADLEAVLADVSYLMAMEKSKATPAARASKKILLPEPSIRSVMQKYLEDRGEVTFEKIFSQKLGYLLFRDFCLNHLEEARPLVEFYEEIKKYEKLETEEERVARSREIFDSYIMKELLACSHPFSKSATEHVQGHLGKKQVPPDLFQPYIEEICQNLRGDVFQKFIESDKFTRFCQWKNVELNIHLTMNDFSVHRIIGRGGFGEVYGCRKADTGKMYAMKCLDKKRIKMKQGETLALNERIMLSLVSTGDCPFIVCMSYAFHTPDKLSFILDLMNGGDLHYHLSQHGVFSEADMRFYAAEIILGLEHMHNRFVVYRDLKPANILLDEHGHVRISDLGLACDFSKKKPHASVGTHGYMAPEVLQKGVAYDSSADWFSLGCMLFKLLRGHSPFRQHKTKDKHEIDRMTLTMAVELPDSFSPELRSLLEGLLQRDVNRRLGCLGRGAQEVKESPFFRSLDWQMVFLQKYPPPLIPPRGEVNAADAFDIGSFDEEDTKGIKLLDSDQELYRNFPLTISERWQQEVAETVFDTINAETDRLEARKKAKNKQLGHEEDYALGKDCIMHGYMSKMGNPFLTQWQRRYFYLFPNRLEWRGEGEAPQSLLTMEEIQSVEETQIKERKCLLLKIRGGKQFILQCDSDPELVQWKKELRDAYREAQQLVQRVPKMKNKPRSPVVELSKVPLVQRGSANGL
The test can be described thus: biochemical. To be noted: GRK2 IC50 (μM), 10 nM GRK2; 10 uM ATP.
Method: Positive and negative control wells received an equal volume of DMSO. The final DMSO concentration in the assay is 1%.
The plate was placed in centrifuge equipped with a spin-bucket rotor and spun for 1 min at 1000 rpm.
GRK2 enzymatic reactions were initiated with the addition of 2 μL/well of 50 nM GRK2 in assay buffer. Plates were centrifuged for 1 min at 1000 rpm. For negative control wells, the order of reagent addition was reversed: 10 μL/well ADP detection mix (see below) was added first, followed by the addition of 2 μL/well of the GRK2 solution. Reaction mixtures were incubated at ambient temperature for 2 hours.
Following incubation, the reactions were quenched with 10 μL/well of the Transcreener ADP detection mix. […] The plates were then centrifuged for 1 min at 1000 rpm.
Fluorescence polarization values of the reaction mixtures were read on a Safire II plate reader after a 60 min incubation at ambient temperature. Excitation wavelength=590 nm; emission wavelength=650 nm.
The fluorescence polarization data were converted to % activity as follows:
% activity=(sample−NC)/(PC−NC)*100
where NC is the mean of negative control (ADP detection mix added prior to GRK2 addition), and PC is the mean of positive control (GRK2 reaction without inhibitor). IC50 values are determined from a 4-parameter fit, using the following equation:
Y=Bottom+(Top−Bottom)/(1+10^((Log IC50-X)*Hill slope)),
where X=log10 of the compound concentration.
In general, IC50 refers to the concentration at which inhibition is half-maximal. High values mean lower potency, low ones higher potency. In the case of `COc1cccc([C@@H](C)n2cnc3ccc(-c4cn[nH]c4)cc3c2=O)c1` [Compound 39, 3-[(1R)-1-(3-Methoxyphenyl)ethyl]-6-(1H-pyrazol-4-yl)quinazolin-4-one], the IC50 was 0.009 µM and 0.017 µM.
The value for `O=c1c2cc(-c3cn[nH]c3)ccc2ncn1Cc1cccc2c1OCO2` [Compound C4, 3-(1,3-Benzodioxol-4-ylmethyl)-6-(1H-pyrazol-4-yl)quinazolin-4-one] was 0.093 µM; that for `CC(c1cccc(C(=O)NCc2ccc(F)cc2)c1)n1cnc2ccc(-c3cn[nH]c3)cc2c1=O` (stereo not drawn) [Compound 61, N-[(4-Fluorophenyl)methyl]-3-[1-[4-oxo-6-(1H-pyrazol-4-yl)quinazolin-3-yl]ethyl]benzamide] was 0.007 µM; that for `Cc1nc2ccc(-c3cn[nH]c3)cc2c(=O)n1Cc1cccc(OC2CN(C)C2)c1` [Compound 25, 2-Methyl-3-(3-((1-methylazetidin-3-yl)oxy)benzyl)-6-(1H-pyrazol-4-yl)quinazolin-4(3H)-one] was 2.34 µM.
The value for `COc1cccc(Cn2cnc3ccc(-c4cn[nH]n4)cc3c2=O)c1` [Compound 44, 3-[(3-Methoxyphenyl)methyl]-6-(2H-triazol-4-yl)quinazolin-4-one] was 0.1 µM; that for `O=C(NCc1c(F)cccc1F)c1ccc(Cn2cnc3ccc(-c4cn[nH]c4)cc3c2=O)cc1` [Compound C3, N-[(2,6-Difluorophenyl)methyl]-4-[[4-oxo-6-(1H-pyrazol-4-yl)quinazolin-3-yl]methyl]benzamide] was approximately 20 µM.
With `[2H]C([2H])(Oc1cccc([C@@H](C)n2cnc3ccc(-c4cn[nH]c4)cc3c2=O)c1)C(=O)O` [Compound 26, 2,2-Dideuterio-2-[3-[(1R)-1-[4-oxo-6-(1H-pyrazol-4-yl)quinazolin-3-yl]ethyl]phenoxy]acetic Acid], inhibition was half-maximal at 0.143 µM (IC50).
The value for `COc1cccc(Cn2c(C(F)(F)F)nc3ccc(-c4cn[nH]c4)cc3c2=O)c1` [Compound 21, 3-[(3-Methoxyphenyl)methyl]-6-(1H-pyrazol-4-yl)-2-(trifluoromethyl)quinazolin-4-one] was 0.425 µM; that for `COc1cccc(C(CCO)n2cnc3ccc(-c4cn[nH]c4)cc3c2=O)c1` (stereo not drawn) [Compound 32, 3-(3-Hydroxy-1-(3-methoxyphenyl)propyl)-6-(1H-pyrazol-4-yl)quinazolin-4(3H)-one] was 0.157 µM.
The value for `COCCNc1nccc(-c2ccc3ncn(Cc4cccc(OC)c4)c(=O)c3c2)n1` [Compound C6, 6-[2-(2-Methoxyethylamino)pyrimidin-4-yl]-3-[(3-methoxyphenyl)methyl]quinazolin-4-one] was more than 50 µM.
The value for `CC(c1cccc(C(=O)NC2CN(C)C2)c1)n1cnc2ccc(-c3cn[nH]c3)cc2c1=O` (stereo not drawn) [Compound 24, N-(1-Methylazetidin-3-yl)-3-[1-[4-oxo-6-(1H-pyrazol-4-yl)quinazolin-3-yl]ethyl]benzamide] was 0.096 µM; that for `O=C(NCc1ccc(F)cc1)c1cc(Cn2cnc3ccc(-c4cn[nH]c4)cc3c2=O)ccn1` [Compound C5, N-[(4-Fluorophenyl)methyl]-4-[[4-oxo-6-(1H-pyrazol-4-yl)quinazolin-3-yl]methyl]pyridine-2-carboxamide] was 0.212 µM.
`COc1ccc(F)cc1Cn1cnc2ccc(-c3cn[nH]c3)cc2c1=O` [Compound 40, 3-[(5-Fluoro-2-methoxy-phenyl)methyl]-6-(1H-pyrazol-4-yl)quinazolin-4-one] registered a 50% inhibitory concentration (IC50) of 1.72 µM.
The value for `O=c1c2cc(-c3cn[nH]c3)ccc2ncn1Cc1cccc(OCc2ccccc2)c1` [Compound 63, 3-[(3-Benzyloxyphenyl)methyl]-6-(1H-pyrazol-4-yl)quinazolin-4-one] was 0.065 µM; that for `COc1cccc(Cn2c(C)nc3ccc(-c4cn[nH]c4)cc3c2=O)c1` [Compound 20, 3-[(3-Methoxyphenyl)methyl]-2-methyl-6-(1H-pyrazol-4-yl)quinazolin-4-one] was 0.014 µM.

The values are drawn from US20220267298A1 (priority 2019, published 2022).
